Results from patent publication US20240268419A1, “IgA PRODUCTION PROMOTING AGENT AND FEED COMPOSITION FOR PROMOTING IgA PRODUCTION” (Nippon Beet Sugar Manufacturing Co., Ltd., priority 2022, published 2024).

Tested on: IgA production in the intestinal tract
Assay: IgA concentration in feces of suckling calves fed DFAIII (ELISA)
Format: in vivo, Holstein calves
Details: for IgA Concentration (mg/g feces): mean ± standard deviation
Description: Twelve head of Holstein calves in suckling period as test subjects were divided into a control group (7 head) and a DFAIII feeding group (5 head). Colostrum was fed to the calves up to 6 days old after birth. In the DFAIII feeding group, 6 g each of difructose anhydride III (DFAIII) (manufactured by Nippon Beet Sugar Manufacturing Co., Ltd.; product name: Koushi no Mikata) was mixed with the colostrum and fed to the calves in the first and second colostrum feeding after birth (at 0 to 1 day old). From 7 days old, the 7 head of calves in suckling period in the control group were fed with a starter, which is a mixed feed for calf in suckling period (manufactured by Nippon Beet Sugar Manufacturing Co., Ltd.; product name: Start; component contents: protein 22%, total digestible nutrients 74%), and the 5 head of calves in suckling period in the DFAIII feeding group were fed with a feed (DFAIII-containing feed) in which DFAIII (manufactured by Nippon Beet Sugar Manufacturing Co., Ltd.) was added in an amount of 2.0 wt % to and mixed with the starter, by free feeding together with hay and water. The amount 2.0 wt % of DFAIII in the DFAIII-containing feed is calculated as the weight proportion (w/w %) of DFAIII relative to the total weight of the starter and DFAIII. From seven days old, 2 L of 15% milk substitute solution (without DFAIII) was further fed to the calves in suckling period twice a day.
Fresh feces were collected from the calves of each test group at 7 days old, 14 days old, 21 days old, and 28 days old. The IgA concentrations in feces were measured by the ELISA method using an IgA ELISA Quantitation Kit (manufactured by BETHYL Laboratories, Inc.). The IgA concentration in feces was expressed in a milligram amount of IgA per wet mass of the feces.

OC[C@H]1O[C@@]2(CO[C@]3(CO)O[C@H](CO)[C@@H](O)[C@@H]3O2)[C@@H](O)[C@@H]1O [DFAIII, di-D-fructofuranose 1, 2:2,3′ dianhydride] was tested, and the “IgA Concentration (mg/g feces)” value (7 days old, Holstein calves in suckling period, 6 g DFAIII in first and second colostrum feeding) was 0.65 ± 0.32 mg/g feces, the “IgA Concentration (mg/g feces)” value (14 days old, 6 g DFAIII in colostrum x2, then starter with 2.0 wt % DFAIII from 7 days old, free feeding) was 1.19 ± 0.45 mg/g feces and the “IgA Concentration (mg/g feces)” value (21 days old, 6 g DFAIII in colostrum x2, then starter with 2.0 wt % DFAIII from 7 days old, free feeding) was 2.60 ± 1.01 mg/g feces. The “IgA Concentration (mg/g feces)” value (28 days old, 6 g DFAIII in colostrum x2, then starter with 2.0 wt % DFAIII from 7 days old, free feeding) was 1.01 ± 1.34 mg/g feces and the “IgA concentrations in feces in comparison with the control group” value (DFAIII feeding group vs control group, Holstein calves in suckling period) was “statistically significantly higher”.
